Test results: the supplement of paper PMC11061612

Legend:
Experiment in all cases: combination Emax (second highest fraction inhibited in the dose matrix, 72 h); higher = more inhibition; extreme values may be limits of the assay
[1] = system: JHH-7 (Hepatocellular Carcinoma)
In short: (§1)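 Cell lines grown in DMEM/F12 or RPMI with 10% FBS were plated in 1536-well plates and held 24 hours at 37°C, 5% CO2 before 72 hours of exposure to two-drug dose matrices, with DMSO typically at 0.2%. CellTiter-Glo 2.0 luminescence gave viability, which was converted to inhibition. Vehicle wells were set to 0 and blank wells to 1. Combination Emax is the second-highest inhibition in the matrix, and Bliss excess is the observed combination effect minus the expected EA + EB − EA·EB, where EA and EB are the single-agent effects.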

[2] = system: OVISE (Ovarian Carcinoma)
In short: as §1

[3] = system: VMRC-LCD (Lung Adenocarcinoma)
In short: as §1

[4] = system: NCI-H1573 (Lung Adenocarcinoma)
In short: as §1

[5] = system: GI-1 (Glioblastoma)
In short: as §1

[6] = system: HuP-T3 (Pancreatic Carcinoma)
In short: as §1

[7] = system: BV-173 (Chronic Myelogenous Leukemia)
In short: as §1

[8] = system: EBC-1 (Squamous Cell Lung Carcinoma)
In short: as §1

[9] = system: SCC-9 (Oral Cavity Carcinoma)
In short: as §1

[10] = system: NCI-H2405 (Lung Adenocarcinoma)
In short: as §1

[11] = system: KU-19-19 (Bladder Carcinoma)
In short: as §1

[12] = system: H-EMC-SS (Chondrosarcoma)
In short: as §1

[13] = system: SNU-C1 (Colorectal Carcinoma)
In short: as §1

[14] = system: KP-2 (Pancreatic Carcinoma)
In short: as §1

SMILES | combination Emax [1] | combination Emax [2] | combination Emax [3] | combination Emax [4] | combination Emax [5] | combination Emax [6] | combination Emax [7] | combination Emax [8] | combination Emax [9] | combination Emax [10] | combination Emax [11] | combination Emax [12] | combination Emax [13] | combination Emax [14]
CN(CCO)CC[C@H](CSc1ccccc1)Nc1ccc(S(=O)(=O)NC(=O)c2ccc(N3CCC([C@@H](O)c4ccccc4-c4ccc(Cl)cc4)CC3)cc2)cc1S(=O)(=O)C(F)(F)F [AZD4320] + CCN(CCO)CCCOc1ccc2c(Nc3cc(CC(=O)Nc4cccc(F)c4)[nH]n3)ncnc2c1 [AZD2811] (first compound max 1 µM, 7x7, partner max 1 µM) | 0.538 | 0.828 | 0.582 | 0.27 | 0.771 | 0.128 | 0.965 | 0.931 | 0.333 | 0.137 | 0.498 | 0.521 | 0.531 | 0.921
CC1(C)CCC(CN2CCN(c3ccc(C(=O)NS(=O)(=O)c4ccc(NCC5CCOCC5)c([N+](=O)[O-])c4)c(Oc4cnc5[nH]ccc5c4)c3)CC2)=C(c2ccc(Cl)cc2)C1 [Venetoclax] + C1CN(CCC1(C(=O)N[C@@H](CCO)C2=CC=C(C=C2)Cl)N)C3=NC=NC4=C3C=CN4 [Capivasertib] (first compound max 1 µM, 7x7, partner max 3 µM) | 0.149 | 0.456 | 0.193 | 0.194 | 0.412 | 0.166 | 0.897 | 0.317 | 0.146 | 0.187 | 0.2 | 0.413 | 0.428 | 0.0692
COc1nnc2ccc(N3CCC(c4ccc(OCCN5CCN(C)C(=O)[C@H]5C)cc4)CC3)nn12 [AZD5153] + Cc1c2c(nn1C)CSCc1cc(n(C)n1)CSc1cc(c3ccccc3c1)OCCCc1c(C(=O)O)n(C)c3c-2c(Cl)ccc13 [AZD5991] (first compound max 1 µM, 7x7, partner max 1 µM) | 0.291 | 0.633 | 0.925 | 0.673 | 0.961 | 0.534 | 0.936 | 0.862 | 0.601 | 0.36 | 0.775 | 0.345 | 0.637 | 0.427
CN(CCO)CC[C@H](CSc1ccccc1)Nc1ccc(S(=O)(=O)NC(=O)c2ccc(N3CCC([C@@H](O)c4ccccc4-c4ccc(Cl)cc4)CC3)cc2)cc1S(=O)(=O)C(F)(F)F [AZD4320] + C[C@@H](Nc1cc(F)cc(F)c1)c1cc(C(=O)N(C)C)cc2c(=O)cc(N3CCOCC3)oc12 [AZD8186] (first compound max 1 µM, 7x7, partner max 3 µM) | 0.368 | 0.881 | 0.249 | 0.289 | 0.813 | 0.332 | 0.971 | 0.972 | 0.746 | 0.417 | 0.315 | 0.727 | 0.484 | 0.827
Cn1cnc2c(F)c(Nc3ccc(Br)cc3Cl)c(C(=O)NOCCO)cc21 [Selumetinib] + C=CCn1c(=O)c2cnc(Nc3ccc(N4CCN(C)CC4)cc3)nc2n1-c1cccc(C(C)(C)O)n1 [AZD1775] (first compound max 10 µM, partner max 1 µM) | 0.229 | 0.593 | 0.702 | 0.417 | 0.74 | 0.629 | 0.925 | 0.923 | 0.518 | 0.395 | 0.917 | 0.23 | 0.627 | 0.54
COc1nnc2ccc(N3CCC(c4ccc(OCCN5CCN(C)C(=O)[C@H]5C)cc4)CC3)nn12 [AZD5153] + C[C@@H]1COCCN1C2=NC(=NC(=C2)C3(CC3)[S@](=N)(=O)C)C4=C5C=CNC5=NC=C4 [AZD6738] (first compound max 1 µM, 7x7, partner max 10 µM) | 0.324 | 0.754 | 0.921 | 0.709 | 0.97 | 0.705 | 0.95 | 0.798 | 0.45 | 0.511 | 0.685 | 0.321 | 0.693 | 0.432
COc1cccc(OCCCN)c1-c1cc(Nc2cnc(C#N)cn2)n[nH]1 [Prexasertib] + C=CCn1c(=O)c2cnc(Nc3ccc(N4CCN(C)CC4)cc3)nc2n1-c1cccc(C(C)(C)O)n1 [AZD1775] (first compound max 1 µM, partner max 1 µM) | 0.765 | 0.763 | 0.772 | 0.713 | 0.994 | 0.679 | 0.994 | 0.666 | 0.482 | 0.388 | 0.858 | 0.554 | 0.847 | 0.613
CC(=O)c1c(C)c2cnc(Nc3ccc(N4CCNCC4)cn3)nc2n(C2CCCC2)c1=O [Palbociclib] + CC1(C)CCC(CN2CCN(c3ccc(C(=O)NS(=O)(=O)c4ccc(NCC5CCOCC5)c([N+](=O)[O-])c4)c(Oc4cnc5[nH]ccc5c4)c3)CC2)=C(c2ccc(Cl)cc2)C1 [Venetoclax] (first compound max 10 µM, 7x7, partner max 1 µM) | 0.132 | 0.104 | 0.0618 | 0.284 | 0.03 | 0.187 | 0.848 | 0.223 | 0.13 | 0.0998 | 0.319 | 0.284 | 0.194 | 0.056
